Laboratory results from patent US20260262643A1, “HERBICIDAL BENZOXAZINES” (FMC CORPORATION, priority 2022, published 2026).

Tests used:
[1] = system: oat, wild; test: Test C preemergence; type: in vivo, Avena fatua; conditions: 0 to 100 scale (0 no effect, 100 complete control); for Oat, Wild plant response rating: preemergence
Procedure, shortened: (§1)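 Visual injury ratings on a 0–100 scale (100 = complete control) were made against untreated controls 10 days after treatment in the greenhouse. Compounds, formulated with surfactant in non-phytotoxic solvent, were sprayed on soil preemergence or onto one- to two-leaf plants 2–10 cm tall postemergence.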

[2] = system: green foxtail; test: Test C preemergence; type: in vivo, Setaria viridis; conditions: 0 to 100 scale (0 no effect, 100 complete control); for Foxtail, Green plant response rating: preemergence
Procedure, shortened: as §1

[3] = system: corn; test: Test C preemergence; type: in vivo, Zea mays; conditions: 0 to 100 scale (0 no effect, 100 complete control); for Corn plant response rating: preemergence
Procedure, shortened: as §1

[4] = system: kochia; test: Test C postemergence; type: in vivo, Bassia scoparia; conditions: 10 days
Procedure, shortened: as §1

[5] = system: corn; test: Test C postemergence; type: in vivo, Zea mays; conditions: 10 days
Procedure, shortened: as §1

[6] = system: kochia; test: Test C preemergence; type: in vivo, Bassia scoparia; conditions: 0 to 100 scale (0 no effect, 100 complete control); for Kochia plant response rating: preemergence
Procedure, shortened: as §1

[7] = system: ragweed; test: Test C preemergence; type: in vivo, Ambrosia artemisiifolia; conditions: 0 to 100 scale (0 no effect, 100 complete control); for Ragweed plant response rating: preemergence
Procedure, shortened: as §1

[8] = system: ryegrass, Italian; test: Test C preemergence; type: in vivo, Lolium multiflorum; conditions: 0 to 100 scale (0 no effect, 100 complete control); for Ryegrass, Italian plant response rating: preemergence
Procedure, shortened: as §1

[9] = system: ducksalad; test: Test D flooded paddy test; type: in vivo, Heteranthera limosa; conditions: 250 g ai/ha, applied to paddy water, visual rating after 13 to 14 days, scale 0 to 100 (0 no effect, 100 complete control)
Procedure, shortened: (§2)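 Plants at the 2-leaf stage were grown in pots flooded to 3 cm, and compound was applied directly into the paddy water, with depth kept throughout. After 13–14 days in a greenhouse, injury was rated visually against untreated controls on a 0–100 scale (100 = complete control); a dash means not tested.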

[10] = system: rice; test: Test D flooded paddy test; type: in vivo, Oryza sativa; conditions: 250 g ai/ha, applied to paddy water, visual rating after 13 to 14 days, scale 0 to 100 (0 no effect, 100 complete control)
Procedure, shortened: as §2

[11] = system: soybean; test: Test C preemergence; type: in vivo, Glycine max; conditions: 0 to 100 scale (0 no effect, 100 complete control); for Soybean plant response rating: preemergence
Procedure, shortened: as §1

[12] = system: pigweed, palmer; test: Test C postemergence; type: in vivo, Amaranthus palmeri; conditions: 10 days
Procedure, shortened: as §1

[13] = system: green foxtail; test: Test C postemergence; type: in vivo, Setaria viridis; conditions: 10 days
Procedure, shortened: as §1

[14] = system: galium; test: Test C postemergence; type: in vivo, Galium aparine; conditions: 10 days
Procedure, shortened: as §1

[15] = system: sedge, umbrella; test: Test D flooded paddy test; type: in vivo, Cyperus difformis; conditions: 250 g ai/ha, applied to paddy water, visual rating after 13 to 14 days, scale 0 to 100 (0 no effect, 100 complete control)
Procedure, shortened: as §2

[16] = system: wheat; test: Test C preemergence; type: in vivo, Triticum aestivum; conditions: 0 to 100 scale (0 no effect, 100 complete control); for Wheat plant response rating: preemergence
Procedure, shortened: as §1

[17] = system: horseweed; test: Test C postemergence; type: in vivo, Erigeron canadensis; conditions: 10 days
Procedure, shortened: as §1

[18] = system: ragweed; test: Test C postemergence; type: in vivo, Ambrosia artemisiifolia; conditions: 10 days
Procedure, shortened: as §1

[19] = system: barnyardgrass; test: Test C postemergence; type: in vivo, Echinochloa crusgalli; conditions: 10 days
Procedure, shortened: as §1

[20] = system: soybean; test: Test C postemergence; type: in vivo, Glycine max; conditions: 10 days
Procedure, shortened: as §1

[21] = system: oat, wild; test: Test C postemergence; type: in vivo, Avena fatua; conditions: 10 days
Procedure, shortened: as §1

[22] = system: barnyardgrass; test: Test D flooded paddy test; type: in vivo, Echinochloa crus-galli; conditions: 250 g ai/ha, applied to paddy water, visual rating after 13 to 14 days, scale 0 to 100 (0 no effect, 100 complete control)
Procedure, shortened: as §2

[23] = system: blackgrass; test: Test C preemergence; type: in vivo, Alopecurus myosuroides; conditions: 0 to 100 scale (0 no effect, 100 complete control); for Blackgrass plant response rating: preemergence
Procedure, shortened: as §1

[24] = system: blackgrass; test: Test C postemergence; type: in vivo, Alopecurus myosuroides; conditions: 10 days
Procedure, shortened: as §1

[25] = system: wheat; test: Test C postemergence; type: in vivo, Triticum aestivum; conditions: 10 days
Procedure, shortened: as §1

[26] = system: barnyardgrass; test: Test C preemergence; type: in vivo, Echinochloa crusgalli; conditions: 0 to 100 scale (0 no effect, 100 complete control); for Barnyardgrass plant response rating: preemergence
Procedure, shortened: as §1

[27] = system: ryegrass, Italian; test: Test C postemergence; type: in vivo, Lolium multiflorum; conditions: 10 days
Procedure, shortened: as §1

[28] = system: pigweed, palmer; test: Test C preemergence; type: in vivo, Amaranthus palmeri; conditions: 0 to 100 scale (0 no effect, 100 complete control); for Pigweed, Palmer plant response rating: preemergence
Procedure, shortened: as §1

[29] = 500 g ai/ha, postemergence, 0 to 100 scale (0 no effect, 100 complete control)
[30] = Postemergence, 125 g ai/ha, 0 to 100 scale (0 no effect, 100 complete control)
[31] = Preemergence, 500 g ai/ha, visual rating after 10 days
[32] = 125 g ai/ha, postemergence, 0 to 100 scale, 0 no effect, 100 complete control
[33] = Postemergence, 500 g ai/ha, visual 0 to 100 scale (0 no effect, 100 complete control)

## COC(=O)c1ncn(-c2ccc(C)c(C(=O)N3C[C@H](C)Oc4c(Cl)cccc43)c2)n1 [Compound 315]
[1]; 500 g ai/ha
  Oat, Wild plant response rating: 60
[1]; Test C, 125 g ai/ha
  Oat, Wild plant response rating: 0
[2]; 500 g ai/ha
  Foxtail, Green plant response rating: 90
[2]; Test C, 125 g ai/ha
  Foxtail, Green plant response rating: 30
[3]; 500 g ai/ha
  Corn plant response rating: 0
[3]; Test C, 125 g ai/ha
  Corn plant response rating: 0
[4]; [29]
  Plant response rating, Kochia: 50
[4]; [30]
  Plant response rating, Kochia: 40
[5]; [29]
  Plant response rating, Corn: 40
[5]; [30]
  Plant response rating, Corn: 30
[6]; 500 g ai/ha
  Kochia plant response rating: 0
[6]; Test C, 125 g ai/ha
  Kochia plant response rating: 0
[7]; 500 g ai/ha
  Ragweed plant response rating: 30
[7]; Test C, 125 g ai/ha
  Ragweed plant response rating: 0
[8]; 500 g ai/ha
  Ryegrass, Italian plant response rating: 90
[8]; Test C, 125 g ai/ha
  Ryegrass, Italian plant response rating: 40
[9]
  Plant response rating, Ducksalad (Flood): 85
[10]
  Plant response rating, Rice (Flood): 10
[11]; 500 g ai/ha
  Soybean plant response rating: 0
[11]; Test C, 125 g ai/ha
  Soybean plant response rating: 0
[12]; [29]
  Plant response rating, Pigweed, Palmer: 100
[12]; [30]
  Plant response rating, Pigweed, Palmer: 80
[13]; [29]
  Plant response rating, Foxtail, Green: 90
[13]; [30]
  Plant response rating, Foxtail, Green: 80
[14]; [29]
  Plant response rating, Galium: 70
[14]; [30]
  Plant response rating, Galium: 70
[15]
  Plant response rating, Sedge, Umbrella (Flood): 60
[16]; 500 g ai/ha
  Wheat plant response rating: 30
[16]; Test C, 125 g ai/ha
  Wheat plant response rating: 0
[17]; [29]
  Plant response rating, Horseweed: 30
[17]; [30]
  Plant response rating, Horseweed: 0
[18]; [29]
  Plant response rating, Ragweed: 70
[18]; [30]
  Plant response rating, Ragweed: 70
[19]; [29]
  Plant response rating, Barnyardgrass: 80
[19]; [30]
  Plant response rating, Barnyardgrass: 60
[20]; [29]
  Plant response rating, Soybean: 100
[20]; [30]
  Plant response rating, Soybean: 70
[21]; [29]
  Plant response rating, Oat, Wild: 90
[21]; [30]
  Plant response rating, Oat, Wild: 50
[22]
  Plant response rating, Barnyardgrass (Flood): 15
[23]; 500 g ai/ha
  Blackgrass plant response rating: 50
[23]; Test C, 125 g ai/ha
  Blackgrass plant response rating: 0
[24]; [29]
  Plant response rating, Blackgrass: 90
[24]; [30]
  Plant response rating, Blackgrass: 70
[25]; [29]
  Plant response rating, Wheat: 90
[25]; [30]
  Plant response rating, Wheat: 80
[26]; 500 g ai/ha
  Barnyardgrass plant response rating: 90
[26]; Test C, 125 g ai/ha
  Barnyardgrass plant response rating: 0
[27]; [29]
  Plant response rating, Ryegrass, Italian: 80
[27]; [30]
  Plant response rating, Ryegrass, Italian: 60
[28]; 500 g ai/ha
  Pigweed, Palmer plant response rating: 100
[28]; Test C, 125 g ai/ha
  Pigweed, Palmer plant response rating: 10

## COC[C@H]1CN(C(=O)c2cc(-n3cnc(C(C)(C)C)n3)ccc2C)c2cccc(Cl)c2O1 [Compound 264]
[1]; [31]
  Plant response rating, Oat, Wild: 90
[1]; Test C, 125 g ai/ha
  Oat, Wild plant response rating: 90
[2]; [31]
  Plant response rating, Foxtail, Green: 100
[2]; Test C, 125 g ai/ha
  Foxtail, Green plant response rating: 100
[3]; [31]
  Plant response rating, Corn: 50
[3]; Test C, 125 g ai/ha
  Corn plant response rating: 30
[4]; [32]
  Plant response rating, Kochia: 80
[4]; [33]
  Plant response rating, Kochia: 100
[5]; [32]
  Plant response rating, Corn: 30
[5]; [33]
  Plant response rating, Corn: 80
[6]; [31]
  Plant response rating, Kochia: 100
[6]; Test C, 125 g ai/ha
  Kochia plant response rating: 90
[7]; [31]
  Plant response rating, Ragweed: 80
[7]; Test C, 125 g ai/ha
  Ragweed plant response rating: 60
[8]; [31]
  Plant response rating, Ryegrass, Italian: 90
[8]; Test C, 125 g ai/ha
  Ryegrass, Italian plant response rating: 90
[9]
  Plant response rating, Ducksalad (Flood): 75
[10]
  Plant response rating, Rice (Flood): 10
[11]; [31]
  Plant response rating, Soybean: 80
[11]; Test C, 125 g ai/ha
  Soybean plant response rating: 90
[12]; [32]
  Plant response rating, Pigweed, Palmer: 90
[12]; [33]
  Plant response rating, Pigweed, Palmer: 90
[13]; [32]
  Plant response rating, Foxtail, Green: 20
[13]; [33]
  Plant response rating, Foxtail, Green: 90
[14]; [32]
  Plant response rating, Galium: 100
[14]; [33]
  Plant response rating, Galium: 100
[15]
  Plant response rating, Sedge, Umbrella (Flood): 80
[16]; [31]
  Plant response rating, Wheat: 60
[16]; Test C, 125 g ai/ha
  Wheat plant response rating: 0
[17]; [32]
  Plant response rating, Horseweed: 20
[17]; [33]
  Plant response rating, Horseweed: 60
[18]; [32]
  Plant response rating, Ragweed: 80
[18]; [33]
  Plant response rating, Ragweed: 90
[19]; [32]
  Plant response rating, Barnyardgrass: 50
[19]; [33]
  Plant response rating, Barnyardgrass: 90
[20]; [32]
  Plant response rating, Soybean: 100
[20]; [33]
  Plant response rating, Soybean: 100
[21]; [32]
  Plant response rating, Oat, Wild: 10
[21]; [33]
  Plant response rating, Oat, Wild: 50
[22]
  Plant response rating, Barnyardgrass (Flood): 35
[23]; [31]
  Plant response rating, Blackgrass: 80
[23]; Test C, 125 g ai/ha
  Blackgrass plant response rating: 40
[24]; [32]
  Plant response rating, Blackgrass: 40
[24]; [33]
  Plant response rating, Blackgrass: 60
[25]; [32]
  Plant response rating, Wheat: 20
[25]; [33]
  Plant response rating, Wheat: 30
[26]; [31]
  Plant response rating, Barnyardgrass: 100
[26]; Test C, 125 g ai/ha
  Barnyardgrass plant response rating: 70
[27]; [32]
  Plant response rating, Ryegrass, Italian: 50
[27]; [33]
  Plant response rating, Ryegrass, Italian: 90
[28]; [31]
  Plant response rating, Pigweed, Palmer: 100
[28]; Test C, 125 g ai/ha
  Pigweed, Palmer plant response rating: 100
